Test results published in patent US6603046B1, “Bis-aromatic a,β-unsaturated ketones” (Lica Pharmaceuticals A/S, priority 1992, dated 2003).
≈ marks a conversion by molar mass, not a printed value.

What was measured:
[1] = Rate of the reaction between N-acetyl-L-cysteine and chalcones, HPLC; type: physicochemical; details: methanol-water-potassium phosphate buffer pH 7.5, 30° C.; first order
From the text: The decline of the chalcone concentration was followed by HPLC. The following experimental setups were used: 1. […] 2. […] This system was used i the case of 4′-methoxychalcone. The rate of decline of the chalcone concentration was followed by HPLC. The rate constant was estimated using Grafit and assuming that the reaction followed first order kinetic; i.e.: [c]=[c0]exp(−kt) where [c] is the concentration of the chalcone in question at time t, [c0] is the concentration of the chalcone in question at time zero, k is the rate constant, and t the time.

[2] = tested on: chloroquine resistant P. falciparum DD2 strain; assay: In vitro growth of P. falciparum DD2, 3H-hypoxanthine uptake (Example 15); type: cell-based, Plasmodium falciparum; details: title: percentage inhibition of 3H-hypoxanthine uptake
[3] = tested on: chloroquine-sensitive P. falciparum 3D7A strain; assay: In vitro growth of P. falciparum 3D7A, 3H-hypoxanthine uptake (Example 15); type: cell-based, Plasmodium falciparum; details: for Percentage inhibition of 3H-hypoxanthine uptake (mean ± SEM): title: percentage inhibition of 3H-hypoxanthine uptake
L. major promastigotes = L. major promastigotes from 4-days cultures, 3H-thymidine uptake (Examples 5, 14); type: cell-based, Leishmania major; details: Leishmania major, Table 14.1, read-out: percentage inhibition of promastigotes (upper figure)
In short: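 Promastigotes harvested on day 4 of culture were exposed to compound, then pulsed with 100 μC 3H-thymidine for a further 18 h. Cells were collected on filter paper, washed, and incorporated radioactivity counted by scintillation.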

human lymphocytes = assay: Lymphocyte Proliferation Assay, 3H-thymidine incorporation (Example 13); details: Homo sapiens, Lymphocyte, read-out: inhibition of lymphocytes (lower figure)
[4] = 4-Hydroxychalcone toxicity study in mice, i.p. (Example 22); type: in vivo, BALB/c female mice; details: for No. died after 24 h: n 4
Description: Mice. BALB/c female mice, 8 weeks old, 20 g body weight.
Drug. 4Hydroxychalcone prepared as in Example 2.
LD50. 80 mg of 4hydroxychalcone was dissolved in 0.2 ml of 99% (v/v) ethanol, and then mixed with 240 mg of Brij 35 dissolved in 19.8 ml of buffer pH 73 (NaH2PO4.H2O 26 mg, Na2HPO4.2H2O 520 mg and distilled water 100 ml), and then sterile filtered through a 0.22 μm Millipore filter. Drug was injected intraperitoneally into mice once.

P. falciparum = P. falciparum growth in vitro (Table 14.1, strain not stated); type: cell-based; details: Plasmodium falciparum, read-out: inhibition of malaria parasites (middle figure) (converted)
Description: The P. falciparum experimental setup was as described in Example 15.
Testing of the effect of drugs and serum on the in vitro growth of the parasites. The experiments in which compounds were tested for their ability to inhibit parasite growth were performed by a modification of the method originally described by Jensen et al. (1982). Fifty μl of parasitized erythrocytes (parasitemia approximately 1%) in a concentration of 5×10^8/ml and 50 μl of RPMI medium containing different concentrations of the test compound was added to each well of a 96 well flat-bottomed microtiter plate (Nunc). The cultures were then incubated for 48 hours, 24 hours before termination of the culture adding 20 μl of 3-H-hypoxanthine (40 uCi/ml) (New England Nuclear, Boston, Mass., USA) was added to each well. The cultures were then harvested onto glass fiber filters using a Skatron cell harvester (Skatron, Lierbyen, Norway), and the incorporation of 3-H-hypoxanthine into the DNA of dividing parasites was determined by liquid scintillation spectrometry.

COc1ccc(/C=C/C(=O)c2ccccc2)c(OC)c1 [drawing 104]
Estimated rate constant k [1]: 0.0033 min⁻¹

COc1ccc(/C=C/C(=O)c2ccc(O)cc2)cc1OC [3,4-Dimethoxy-4′-hydroxychalcone, 3,4-dimethoxy-4′-hydroxychalcone]
Growth in % of control (mean ± SEM) ([2]; 0.5 μg/ml): 9.3 ± 9.2%
Growth in % of control (mean ± SEM) ([2]; 1 μg/ml): 7.1 ± 8.1%
Growth in % of control (mean ± SEM) ([2]; 5 μg/ml): 48.5 ± 8.4%
Growth in % of control (mean ± SEM) ([2]; 10 μg/ml): 82.6 ± 4.7%
melting point: 193 to 198 °C

C=CC(C)(OC)c1cc(CCC(=O)c2ccc(O)cc2)c(OC)cc1O (centres unmarked)
Estimated rate constant k [1]: 0.00058 min⁻¹

O=C(/C=C/c1ccc(O)cc1)c1ccccc1 [4-Hydroxychalcone, 4-hydroxychalcone]
IC50 ([3]; Plasmodium falciparum, read-out: concentration in which growth was retarded by 50%): 1 to 5 µg/mL (≈ 4.46 to 22.3 µM)
Percentage inhibition of 3H-hypoxanthine uptake (mean ± SEM) ([3]; 0.5 μg/ml): 20.5 ± 10.9%
Percentage inhibition of 3H-hypoxanthine uptake (mean ± SEM) ([3]; 1 μg/ml): 29.2 ± 7.7%
Percentage inhibition of 3H-hypoxanthine uptake (mean ± SEM) ([3]; 5 μg/ml): 61.3 ± 10.6%
Percentage inhibition of 3H-hypoxanthine uptake (mean ± SEM) ([3]; 10 μg/ml): 88.2 ± 5.3%
inhibition at 0.5 µg/mL (L. major promastigotes; 0.5 μg/ml): 7%
inhibition at 1 µg/mL (L. major promastigotes; 1 μg/ml): 49.1 ± 16.8%
inhibition at 5 µg/mL (L. major promastigotes; 5 μg/ml): 80.1 ± 12.6%
inhibition at 10 µg/mL (L. major promastigotes; 10 μg/ml): 91 ± 5.4%
inhibition at 1 µg/mL (human lymphocytes): 2.24%
inhibition at 5 µg/mL (human lymphocytes): 7.73%
inhibition at 10 µg/mL (human lymphocytes): 14.2%
No. died after 24 h ([4]; 50 mg/kg i.p.): 0
No. died after 24 h ([4]; 100 mg/kg i.p.): 0
No. died after 24 h ([4]; 200 mg/kg i.p.): 1
No. died after 24 h ([4]; 400 mg/kg i.p.): 2
LD50, intraperitoneally ([4]; mice): 400 mg per kg
inhibition at 0.5 µg/mL (P. falciparum; 0.5 μg/ml): 20.5%
inhibition at 1 µg/mL (P. falciparum; 1 μg/ml): 29.2%
inhibition at 5 µg/mL (P. falciparum; 5 μg/ml): 61.3%
inhibition at 10 µg/mL (P. falciparum; 10 μg/ml): 88.2%

C=CCOc1ccc(C(=O)CCc2ccc(OC)cc2OC)cc1
Estimated rate constant k [1]: 0.0011 min⁻¹

C=CCOc1ccc(C(=O)/C=C/c2c(OC)cccc2OC)cc1 [2,6-Dimethoxy-4′-allyloxychalcone, 2,6-dimethoxy-4′-prop-2-enyloxychalcone]
Growth in % of control (mean ± SEM) ([2]; 0.5 μg/ml): 23.3 ± 10.9%
Growth in % of control (mean ± SEM) ([2]; 1 μg/ml): 24.3 ± 9.5%
Growth in % of control (mean ± SEM) ([2]; 5 μg/ml): 40.2 ± 8.7%
Growth in % of control (mean ± SEM) ([2]; 10 μg/ml): 56.7 ± 8.9%
melting point: 102 to 103 °C

COc1ccc(C(=O)/C=C/c2ccccc2)cc1 [drawing 103, 4′-methoxychalcone]
Estimated rate constant k [1]: 0.016 min⁻¹
